Measurements published in ChEMBL document CHEMBL1141955, “Geometric diversity through permutation of backbone configuration in cyclic peptide libraries” (Bioorg Med Chem Lett, 2005).

Biological target: Actin, cytoplasmic 1 (Xenopus laevis, UniProt O93400)
Experiment: Inhibitory activity against actin assembly in xenopus by polymerisation assay; call rule not given here

| IC50 (read-out: IC50) [µM] | IC50 | SMILES |
| --- | --- | --- |
| 2 | – | NCCCC[C@@H]1NC(=O)[C@H](CCC(N)=O)NC(=O)[C@H]2CCCN2C(=O)[C@H](Cc2ccccc2)NC(=O)[C@@H](Cc2ccccc2)NC(=O)[C@H]2CCCN2C(=O)[C@@H](Cc2ccccc2)NC(=O)[C@H](CCCCN)NC(=O)[C@H](CCC(N)=O)NC(=O)[C@H]2CCCN2C(=O)[C@H](Cc2ccccc2)NC(=O)[C@@H](Cc2ccccc2)NC(=O)[C@H]2CCCN2C(=O)[C@@H](Cc2ccccc2)NC1=O |
| – | Not Active | NCCCC[C@@H]1NC(=O)[C@H](CCC(N)=O)NC(=O)[C@H]2CCCN2C(=O)[C@H](Cc2ccccc2)NC(=O)[C@@H](Cc2ccccc2)NC(=O)[C@H]2CCCN2C(=O)[C@@H](Cc2ccccc2)NC1=O |
